Results: the METLIN SMRT retention time set (Domingo-Almenara et al. 2019)

Assay: gradient 5% acetonitrile 3 min, to 50% in 2 min, to 85% in 15 min, held 3 min, 100 µL/min
Conditions: column: Zorbax Extend-C18 2.1 x 50 mm; eluents: water / acetonitrile, 0.1% formic acid
How it was run: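 Values are retention times taken from adduct peaks that software picked and an analyst inspected. The pure standards were run as mixtures of ~100 molecules on HPLC linked to a quadrupole time-of-flight mass spectrometer, in positive and negative ionization mode. A Zorbax Extend-C18 column (2.1 × 50 mm, 1.8 μm) was used at 100 μL/min with water and acetonitrile, each including 0.1% formic acid.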

RP-LC retention time [s] | Structure (SMILES)
710 | O=C(CSc1nnc(-c2ccc3c(c2)OCCCO3)n1C1CC1)N1CCCC1
626 | O=C(NC1CCN(c2cc(-c3ccc(Cl)cc3)[nH]n2)C1)c1ccc2nc[nH]c2c1 (configuration not stated)
737 | Cc1ccc2c(Nc3ccc(C(C)C)cc3)c(C(=O)N3CCCC(C)C3)cnc2n1 (configuration not stated)
718 | O=C(c1cn2cc(Cl)ccc2n1)N1CCCCCC1
840 | Cc1cc2c(c(=O)n(-c3ccc(F)cc3)c(=O)n2CC(=O)Nc2cccc(F)c2)n1C
572 | Cc1ccc(C)c(NC(=O)N2CCN(c3nc(C)cc(N(C)C)n3)CC2)c1
801 | CCOc1ccc(NC(=O)C2CCN(S(=O)(=O)c3ccc4c(c3)NC(=O)CO4)CC2)cc1
1090 | Cc1sc(NC(=O)c2ccccc2Br)nc1-c1ccccc1
656 | Cc1ccc(C)c(S(=O)(=O)NCCn2c(C)cnc2C2CCC2)c1
836 | O=C(Nc1ccc(N2CCN(c3ccccc3)C2=O)nc1)c1cccs1
796 | CCc1onc(C)c1C1CCCN1C(=O)Nc1ccc(OC)cc1OC (configuration not stated)
661 | CCn1c(CCNC(=O)c2cc(Cl)ccc2F)nc2cccnc21
665 | Cc1nc(-c2cccc(NC(=O)c3ncccn3)c2)cs1
791 | O[C@H](CNC[C@@H](O)[C@H]1CCc2cc(F)ccc2O1)[C@@H]1CCc2cc(F)ccc2O1
722 | Cc1ccc(Nc2nc3ccncc3n(C(C)C)c2=O)cc1F
958 | O=C(Nc1ccc(OCc2nnc(-c3ccc(Cl)cc3)o2)cc1)c1ccsc1
812 | O=C(CCC(=O)N1CCCC1c1nc2ccccc2s1)N1CCN(c2ccccc2)CC1 (configuration not stated)
966 | CCOC(=O)C1CCN(c2ccc3nnc(CCc4nc(-c5ccc(F)cc5)no4)n3n2)CC1
679 | CCCn1ccc2sc(C)c(C(=O)NC3CC3)c2c1=O
662 | Cc1cccc(-c2nnc(-c3nc(NCCN4CCOCC4)c4ccccc4n3)o2)c1
797 | COc1ccccc1NC(=O)N1CCCC1c1c(C)noc1C (configuration not stated)
600 | O=C(NCc1ccco1)c1coc(NC(=O)C2CC2)n1

RP-LC retention time [s] | Structure (SMILES)
778 | CCN1CCCn2cc(S(=O)(=O)NCc3ccc(C)cc3)cc2C1=O
706 | COc1ccc(C2C(C(=O)N3CCCCC3)c3cc(OC)c(OC)cc3C(=O)N2C)cc1OC (configuration not stated)
788 | COc1ccc2c(=O)c(Oc3ccc(C(=O)Nc4nccs4)cc3)c(C)oc2c1
980 | Cc1nc(-c2cn(C(C)C)c3ncccc23)sc1C(=O)NCc1ccc2c(c1)OCO2
905 | COCc1cc2nn(CC(=O)Nc3cccc(C)c3)c(=O)n2c(-c2ccccc2)n1
872 | O=c1c2ccccc2ncn1Cc1noc(Cc2ccc(Cl)cc2)n1
958 | Cc1ccc(Nc2c(-c3ccc(N(C)C)cc3)nc3cnccn23)cc1Cl
1150 | CCn1cc2nc(SCc3cc(F)cc(F)c3)n(Cc3ccccc3F)c(=O)c2n1
1030 | O=C(Cn1cccc1-c1nc(-c2ccc3c(c2)OCO3)no1)NC1CCCCC1
891 | COCCn1cc2c3c(cccc31)CN(C(=O)Nc1ccc(OC)c(F)c1)CC2
1340 | Fc1ccc(-c2noc(Cc3nc(-c4ccc(Br)cc4)cs3)n2)cc1
939 | COC(=O)c1cc(S(=O)(=O)N2CCCC2C(=O)NCc2ccc(C)cc2)cn1C (configuration not stated)
725 | O=C(c1ccccc1C(F)(F)F)N1CCN(S(=O)(=O)C2CC2)CC1
663 | O=C(NCc1ccc(Cl)cc1)C1CCN(c2cc(N3CCOCC3)ncn2)CC1
1060 | O=C1C2N=NN(Cc3nc(-c4ccccc4Br)no3)C2C(=O)N1c1ccc2c(c1)CCC2 (configuration not stated)
631 | COc1ccc(C2C(C(=O)NCC3CCCO3)CCC(=O)N2c2cc(OC)c(OC)c(OC)c2)cc1 (configuration not stated)
830 | COc1ccc(N2CCN(c3cc(SCC(=O)NCc4ccc(F)cc4)ncn3)CC2)cc1
1080 | Cc1ccc(N2C(=O)C3N=NN(Cc4nc(-c5cccc(C(F)(F)F)c5)no4)C3C2=O)cc1 (configuration not stated)
895 | CCOc1ccc(-n2ccn3cc(-c4cc(OC)ccc4OC)nc3c2=O)cc1
1030 | CCCc1ccc(S(=O)(=O)NCc2c(-c3ccccc3)nc3sc(C)nn23)cc1
575 | O=C1CCC(C(=O)N2CCC3(CCC3O)CC2)=NN1 (configuration not stated)
944 | Cc1[nH]c(C(=O)N2CCCC(C(=O)NC3CCCCCC3)C2)c(C)c1C(=O)OC(C)C (configuration not stated)

RP-LC retention time [s] | Structure (SMILES)
746 | O=C(NCc1ccc(C(F)(F)F)cc1)c1cn2ccccc2n1
909 | CSc1cccc(NC(=O)Cn2c(Nc3cc(C)cc(C)c3)nc(C)cc2=O)c1
750 | COc1ccc2oc(-c3noc(CNC(C)=O)n3)c(C)c2c1
842 | COc1ccc(CN2CC3(CCN(S(=O)(=O)c4c(C)noc4C)CC3)C2=O)cc1
572 | CCn1nccc1C(=O)N1C[C@@H]2CCCN3CCC[C@@H]([C@H]23)[C@H]1CCCC(=O)N1CCOCC1
716 | CC1CCN(C(=O)CN2C(=O)COc3ccc(C(=O)N4CCCCC4)cc32)CC1
950 | CCOC(=O)C1=C(C)NC2=C(C(=O)c3ccccc32)C1c1ccccc1OC (configuration not stated)
785 | COc1ccc(OC)c(NC(=O)c2c(N3CCCC3=O)c3cc(F)ccc3n2C)c1
697 | Cn1c(=O)n(C)c2cc(CNc3ccc(C(=O)O)c(Cl)c3)ccc21
1110 | CC(C)OC(=O)C(C(=O)OC(C)C)=C1SC=CS1
683 | Cc1ccn2cc(C(=O)NC3CCCCCC3)nc2c1
769 | CCn1nccc1C(=O)N1CCCN(C2=NS(=O)(=O)C(c3ccc(C)cc3)=C2C)CC1
742 | COC1CCC12CCN(C(=O)Nc1ccc3c(c1)OCCO3)CC2 (configuration not stated)
1040 | CC1(C)CC(=O)c2cn(-c3ccccc3)c(=O)c(C(=O)Nc3ccccc3F)c2C1
1000 | Cc1ccc(-n2ccn3cc(-c4ccc(F)cc4F)nc3c2=O)cc1Cl
914 | O=C(Nc1ccc(Br)cc1)c1ccc(S(=O)(=O)N2CCCC2)cc1
883 | COc1ccccc1OCC(=O)Nc1ccc2c(c1)Sc1ncccc1C(=O)N2C(C)C
731 | O=C(N[C@H]1C[C@@H]2C[C@H]1CN2C(=O)c1cc2c(s1)CCCC2)c1cccnc1
821 | Cc1ccccc1CCNC(=O)c1cc2n(n1)CC(C)(C(=O)NCc1ccc(F)cc1)N(C)C2=O (configuration not stated)
676 | O=C(c1ccsc1)N1CCCCC1c1nncn1-c1ccccc1 (configuration not stated)
624 | CCc1nc2cccnc2n1CCN1CCN(C(=O)Nc2ccc(Br)cc2F)CC1
1160 | CCCn1c(=O)c(C)nc2cc(-c3noc(-c4ccc(OC)cc4)n3)ccc21

RP-LC retention time [s] | Structure (SMILES)
710 | CCc1nnc2ccc(NC(=O)Nc3cccc(F)c3)cn12
841 | COc1ccc(-n2c(=O)n(C)c(=O)c3cc(C(=O)Nc4ccc5c(c4)OCO5)cnc32)cc1
819 | CC1CCN(S(=O)(=O)c2ccc3c(c2)CCCC(=O)N3CC(=O)N2CCCC2)CC1
1070 | Cc1ccc(S(=O)(=O)N2CCCC2)cc1-c1nnc(-c2ccccc2Cl)o1
798 | CCOc1ccc(NC(=O)C2CCN(S(=O)(=O)c3ccc4c(c3)sc(=O)n4C)CC2)cc1
1380 | Cc1nn(-c2ccccc2)c2sc(C(=O)Oc3ccc(F)cc3)cc12
534 | Nc1nc(F)nc2c1ncn2[C@@H]1O[C@H](COP(=O)(O)O)[C@@H](O)[C@@H]1O
991 | COc1ccc(NC(=O)C2CCCN(S(=O)(=O)c3cc(-c4noc(C)n4)cs3)C2)cc1Cl (configuration not stated)
990 | O=C(CN1C(=O)CCCc2cc(S(=O)(=O)N3CCCCC3)ccc21)Nc1ccc(Cl)cc1
613 | O=C(NC1CC1)c1ccc(-c2ccc(N3CCCCC3)nc2)cc1
659 | CCCCNC(=O)C(=O)NCc1n[nH]c(=O)c2ccccc12
849 | Cc1cc(Cl)ccc1OCC(=O)N(Cc1ccc(N(C)C)cc1)C1CCS(=O)(=O)C1 (configuration not stated)
912 | Cc1ccc(S(=O)(=O)N2CCCN(c3ccc(=O)n(-c4ccccc4)n3)CC2)cc1C
608 | O=C(C1CCOC1)N1CCC2(CC1)NCCc1c2[nH]c2ccccc12 (configuration not stated)
657 | CCCNC(=O)CC1CCN(C(=O)c2[nH]c(C)c(C(=O)OC)c2C)CC1
794 | Cc1cc(C)c(C(=O)N2CCC(CC(=O)NCc3ccccc3C)CC2)[nH]1
621 | CCCNC(=O)C1CC(=O)N(c2ccc3c(c2)CCN3C(C)=O)C1 (configuration not stated)
852 | Cc1nn(-c2ccccc2)c2c1N(CC(=O)Nc1ccc(F)cc1F)C(=O)CS2
836 | O=C(NC1CC1)c1cc(-c2ccccc2)ns1

Structure (SMILES) | RP-LC retention time [s]
CCOc1ccccc1NC(=O)c1cn(C)c2ncccc12 | 927
COc1ccc(NC(=O)N2[C@H]3CC[C@@H]2c2cnc(-c4ccccc4)nc2C3)c(OC)c1 | 894
